Patent publication US11566007B2, “Ras inhibitors” (Revolution Medicines, Inc., priority 2019, dated 2023)

Legend:
[1] = tested on: NCI-H358 cells (K-Ras G12C); experiment: Potency assay: pERK in NCI-H358 cells; format: cell-based, human; details: Homo sapiens, NCI-H358; H358 KRAS G12C; read-out: pERK EC50
Outline: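 Compounds are dosed as ten 3-fold dilutions from a 10 mM DMSO stock, in duplicate, and left on cells for 4 h at 37 °C, 5% CO2. Phospho-ERK1/2 is then quantified by AlphaLISA SureFire Ultra or In-Cell Western, and IC50 is derived from a 4-parameter sigmoid against log concentration.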

[2] = biological target: KRAS G12S (Homo sapiens (Human), UniProt P01116+P62937, G12S); experiment: Ras-Raf (BRAF RBD) disruption / FRET / MOA assay, KRAS G12S; format: biochemical; details: Ras-Raf disruption/FRET/MOA assay; class symbols; read-out: KRAS G12S FRET data IC50
KRAS G12S, sequence (P01116-2 other isoform, or with tags, fused parts or gaps G12S): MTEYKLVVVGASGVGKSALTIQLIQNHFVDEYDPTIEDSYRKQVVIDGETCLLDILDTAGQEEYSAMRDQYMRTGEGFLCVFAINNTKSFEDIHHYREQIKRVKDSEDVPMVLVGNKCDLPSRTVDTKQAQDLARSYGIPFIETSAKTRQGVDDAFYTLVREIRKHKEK
KRAS G12S, sequence (P62937 whole entry): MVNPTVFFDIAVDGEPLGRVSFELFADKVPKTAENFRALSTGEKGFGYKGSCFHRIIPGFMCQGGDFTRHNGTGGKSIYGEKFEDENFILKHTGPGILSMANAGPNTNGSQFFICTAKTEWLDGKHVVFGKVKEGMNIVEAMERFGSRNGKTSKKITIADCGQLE
Outline: (§1)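 Ternary complex formation (Ras–compound–cyclophilin A) displacing BRAF RBD, monitored by TR-FRET. Three hours at 25° C with compound (top 30 μM final), then 1.5 h with the labelled antibodies. Lower ratio than DMSO indicates disruption; IC50 reported.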

[3] = tested on: NCI-H358 (K-Ras G12C); experiment: CellTiter-Glo cell viability assay, NCI-H358; format: cell-based, human; details: Homo sapiens, NCI-H358, 120 h, NCI-H358, 5-day treatment; class symbols; read-out: Additional H358 Cell Viability assay data (K-Ras G12C, IC50)
Outline: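 Luminescent viability readout on day 5 after direct compound addition to plated cells; plates sat ~30 min at room temperature before reading. Values expressed as percent of mean DMSO signal, curves fit with a four-parameter logistic model.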

[4] = biological target: K-Ras G12C (Homo sapiens (Human), UniProt P01116+P62937, G12C); experiment: Ras-Raf (BRAF RBD) disruption / FRET / MOA assay, KRAS G12C; format: biochemical; details: KRAS G12C; Ras-Raf disruption/FRET/MOA assay; read-out: IC50* KRAS G12C FRET data
K-Ras G12C, sequence (P01116-2 other isoform, or with tags, fused parts or gaps G12C): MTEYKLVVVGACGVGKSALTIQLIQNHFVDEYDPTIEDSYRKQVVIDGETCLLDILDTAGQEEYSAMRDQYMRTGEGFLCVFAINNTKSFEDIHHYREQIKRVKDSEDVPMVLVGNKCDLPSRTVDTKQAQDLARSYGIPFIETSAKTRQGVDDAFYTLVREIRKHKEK
K-Ras G12C, sequence (P62937 whole entry): as the sequence (P62937 whole entry) above
Outline: as §1

[5] = biological target: KRAS WT (Homo sapiens (Human), UniProt P01116+P62937); experiment: Ras-Raf (BRAF RBD) disruption / FRET / MOA assay, KRAS WT; format: biochemical; details: read-out: IC50* KRAS WT FRET data
KRAS WT, sequence (P01116-2 other isoform, or with tags, fused parts or gaps): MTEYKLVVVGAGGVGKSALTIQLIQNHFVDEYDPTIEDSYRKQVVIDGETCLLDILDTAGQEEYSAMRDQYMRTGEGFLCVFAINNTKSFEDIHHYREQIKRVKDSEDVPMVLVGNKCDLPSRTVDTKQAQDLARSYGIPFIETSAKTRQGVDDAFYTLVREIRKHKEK
KRAS WT, sequence (P62937 whole entry): as the sequence (P62937 whole entry) above
Outline: as §1

[6] = biological target: KRAS G13D (Homo sapiens (Human), UniProt P01116+P62937, G13D); experiment: Ras-Raf (BRAF RBD) disruption / FRET / MOA assay, KRAS G13D; format: biochemical; details: read-out: IC50* KRAS G13D FRET data
KRAS G13D, sequence (P01116-2 other isoform, or with tags, fused parts or gaps G13D): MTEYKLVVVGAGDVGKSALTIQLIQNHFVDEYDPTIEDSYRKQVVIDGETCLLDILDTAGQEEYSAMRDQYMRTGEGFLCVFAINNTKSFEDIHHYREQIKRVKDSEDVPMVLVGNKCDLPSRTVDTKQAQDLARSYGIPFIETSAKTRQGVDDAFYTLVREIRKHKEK
KRAS G13D, sequence (P62937 whole entry): as the sequence (P62937 whole entry) above
Outline: as §1

[7] = biological target: K-Ras G13C (Homo sapiens (Human), UniProt P01116+P62937, G13C); experiment: Ras-Raf (BRAF RBD) disruption / FRET / MOA assay, KRAS G13C; format: biochemical; details: KRAS G13C; Ras-Raf disruption/FRET/MOA assay; read-out: IC50* KRAS G13C FRET data
K-Ras G13C, sequence (P01116-2 other isoform, or with tags, fused parts or gaps G13C): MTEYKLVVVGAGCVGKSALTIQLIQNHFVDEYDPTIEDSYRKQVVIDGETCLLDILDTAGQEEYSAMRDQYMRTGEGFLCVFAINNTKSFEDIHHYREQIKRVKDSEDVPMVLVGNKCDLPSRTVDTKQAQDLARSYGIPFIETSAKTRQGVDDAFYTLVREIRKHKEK
K-Ras G13C, sequence (P62937 whole entry): as the sequence (P62937 whole entry) above
Outline: as §1

[8] = biological target: KRAS G12D (Homo sapiens (Human), UniProt P01116+P62937, G12D); experiment: Ras-Raf (BRAF RBD) disruption / FRET / MOA assay, KRAS G12D; format: biochemical; details: Ras-Raf disruption/FRET/MOA assay; class symbols; read-out: KRAS G12D FRET data IC50
KRAS G12D, sequence (P01116-2 other isoform, or with tags, fused parts or gaps G12D): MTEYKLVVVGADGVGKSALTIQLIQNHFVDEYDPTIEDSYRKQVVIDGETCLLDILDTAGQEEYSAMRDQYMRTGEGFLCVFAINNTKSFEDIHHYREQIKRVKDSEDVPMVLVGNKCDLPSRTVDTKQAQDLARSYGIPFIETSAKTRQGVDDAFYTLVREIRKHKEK
KRAS G12D, sequence (P62937 whole entry): as the sequence (P62937 whole entry) above
Outline: as §1

[9] = biological target: KRAS G12V (Homo sapiens (Human), UniProt P01116+P62937, G12V); experiment: Ras-Raf (BRAF RBD) disruption / FRET / MOA assay, KRAS G12V; format: biochemical; details: read-out: IC50* KRAS G12V FRET data
KRAS G12V, sequence (P01116-2 other isoform, or with tags, fused parts or gaps G12V): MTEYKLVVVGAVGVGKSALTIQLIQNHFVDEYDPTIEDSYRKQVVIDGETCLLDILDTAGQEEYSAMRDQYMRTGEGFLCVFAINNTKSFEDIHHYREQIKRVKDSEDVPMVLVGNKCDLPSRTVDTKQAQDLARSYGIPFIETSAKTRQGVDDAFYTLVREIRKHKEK
KRAS G12V, sequence (P62937 whole entry): as the sequence (P62937 whole entry) above
Outline: as §1

[10] = biological target: NRAS G12C (Homo sapiens (Human), UniProt P01111+P62937, G12C); experiment: Ras-Raf (BRAF RBD) disruption / FRET / MOA assay, NRAS G12C; format: biochemical; details: read-out: IC50* NRAS G12C FRET data
NRAS G12C, sequence (P01111 whole entry G12C): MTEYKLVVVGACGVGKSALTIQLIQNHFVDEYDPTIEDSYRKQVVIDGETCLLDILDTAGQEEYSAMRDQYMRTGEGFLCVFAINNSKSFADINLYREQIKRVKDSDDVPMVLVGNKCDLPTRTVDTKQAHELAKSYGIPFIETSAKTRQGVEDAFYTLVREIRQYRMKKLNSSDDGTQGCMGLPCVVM
NRAS G12C, sequence (P62937 whole entry): as the sequence (P62937 whole entry) above
Outline: as §1

| Compound | EC50 [1] | IC50 [2] | IC50 [3] | IC50 [4] | IC50 [5] | IC50 [6] | IC50 [7] | IC50 [8] | IC50 [9] | IC50 [10] |
| --- | --- | --- | --- | --- | --- | --- | --- | --- | --- | --- |
| CCn1c(-c2cncnc2)c2c3cc(ccc31)-c1cc(O)cc(c1)C[C@H](NC(=O)[C@H](C(C)C)N(C)C(=O)[C@H]1CCN(C(=O)C#CCN3CCOCC3)C1)C(=O)N1CCC[C@H](N1)C(=O)OCC(C)(C)C2 [Example A176] | < 5000 nM | 1000 to 10000 nM | 10 to 100 nM | < 10 nM | > 10000 nM | > 10000 nM | 1000 to 10000 nM | > 10000 nM | 1000 to 10000 nM | < 10 nM |
| CCn1c(-c2cncnc2)c2c3cc(ccc31)-c1csc(n1)C[C@H](NC(=O)[C@H](C(C)C)N(C)C(=O)[C@H]1CCN(C(=O)C#CCN3CCOCC3)C1)C(=O)N1CCC[C@H](N1)C(=O)OCC(C)(C)C2 [Example A177] | < 5000 nM | > 10000 nM | 100 to 1000 nM | 100 to 1000 nM | > 10000 nM | > 10000 nM | > 10000 nM | > 10000 nM | > 10000 nM | 100 to 1000 nM |
| C/C=C(\C#N)C(=O)N1CC[C@H](C(=O)N(C)[C@H](C(=O)N[C@H]2Cc3cc(O)cc(c3)-c3ccc4c(c3)c(c(-c3cccnc3COC)n4CC)CC(C)(C)COC(=O)[C@@H]3CCCN(N3)C2=O)C(C)C)C1 [Example A178] | < 5000 nM | 100 to 1000 nM | > 1000 nM | 10 to 100 nM | 1000 to 10000 nM | 1000 to 10000 nM | 10 to 100 nM | 1000 to 10000 nM | 100 to 1000 nM | 10 to 100 nM |
| C=CC(=O)N1CC[C@@H](C(=O)N(C)[C@H](C(=O)N[C@H]2Cc3cc(O)cc(c3)-c3ccc4c(c3)c(c(-c3cncnc3)n4CC)CC(C)(C)COC(=O)[C@@H]3CCCN(N3)C2=O)C(C)C)O1 [Example A179] | < 5000 nM | 1000 to 10000 nM | > 1000 nM | 10 to 100 nM | 1000 to 10000 nM | 1000 to 10000 nM | 100 to 1000 nM | 1000 to 10000 nM | 1000 to 10000 nM | 10 to 100 nM |
| C=CC(=O)N1CC[C@H](C(=O)N(C)[C@H](C(=O)N[C@H]2Cc3cc(O)cc(c3)-c3ccc4c(c3)c(c(-c3cncnc3)n4CC)CC(C)(C)COC(=O)[C@@H]3CCCN(N3)C2=O)C(C)C)O1 [Example A180] | < 5000 nM | 1000 to 10000 nM | > 1000 nM | 100 to 1000 nM | 100 to 1000 nM | 1000 to 10000 nM | 100 to 1000 nM | 1000 to 10000 nM | 100 to 1000 nM | 100 to 1000 nM |
| CCn1c(-c2cncnc2)c2c3cc(ccc31)-c1cccc(c1)C[C@H](NC(=O)[C@H](C(C)C)N(C)C(=O)[C@H]1CCN(C(=O)C#CCN3CCOCC3)C1)C(=O)N1CCC[C@H](N1)C(=O)OCC(C)(C)C2 [Example A185] | < 5000 nM | > 10000 nM | 100 to 1000 nM | 100 to 1000 nM | > 10000 nM | > 10000 nM | > 10000 nM | > 10000 nM | > 10000 nM | 100 to 1000 nM |
| CCn1c(-c2cccnc2COC)c2c3cc(ccc31)-c1cc(O)cc(c1)C[C@H](NC(=O)[C@H](C(C)C)N(C)C(=O)[C@H]1CCN(C(=O)C#CCN3CCN(C)CC3)C1)C(=O)N1CCC[C@H](N1)C(=O)OCC(C)(C)C2 [Example A189] | < 5000 nM | 100 to 1000 nM | > 1000 nM | 10 to 100 nM | 100 to 1000 nM | 100 to 1000 nM | 100 to 1000 nM | 100 to 1000 nM | 100 to 1000 nM | 10 to 100 nM |
| CCn1c(-c2cccnc2)c2c3cc(ccc31)-c1csc(n1)C[C@H](NC(=O)[C@H](C(C)C)N(C)C(=O)[C@H]1CCN(C(=O)C#CCN3CCOCC3)C1)C(=O)N1CCC[C@H](N1)C(=O)OCC(C)(C)C2 [Example A190] | < 5000 nM | > 10000 nM | 100 to 1000 nM | 100 to 1000 nM | > 10000 nM | > 10000 nM | > 10000 nM | > 10000 nM | > 10000 nM | 100 to 1000 nM |
